{
  "source": "patent US20250255829A1",
  "about": "“Multifunctional Nanoparticles and Uses in Managing Cancer and Cardiovascular Diseases” (Emory University, priority 2022, published 2025)",
  "key": {"atherosclerotic plaques": {"test_system": "atherosclerotic plaques", "experiment": "Atherosclerotic plaque quantification from H&E stained aorta sections", "type": "in vivo, Apoe−/− mice", "conditions": "for volumes of atherosclerotic plaques: 5 mg/kg study", "description": "Apoe−/−mice bearing dual diseases received the treatment. After surgical resection of the primary tumors, tumor recurrence and mouse survival were monitored. Mice with tumor recurrence and reached the endpoint were sacrificed. Aorta tissues of the mice were collected at the time point. Serial frozen tissue sections were cut throughout the tissue blocks and stained with H&E. Size of plaques in all arteries of each of the H&E stained tissue sections were measured and total size of the plaques from eight tissue sections of each mouse was compared with the mean of the total plaque area of the no treatment control (100%). For PD1Y-HANP/Ava group that sacrificed at 120 days, an additional no treatment group that was time equivalent was used as a control for the progression of atherosclerosis.\nApoe−/−mice bearing subcutaneous mouse colon tumors were treated with different reagents every 3-4 days for three treatments. Three days following the last treatment, all mice were sacrificed, and aorta arteries were collected. Plaque volumes were quantified from serial H&E tissue sections. During 12 days of treatment, PD1Y-HANP/Avasimibe treated mice had 56% reduction of the total plaque volume in the dual disease mouse model.\nFollowing treatments and by the end of the survival study, the aorta tissues were collected.\nIn order to enhance the therapeutic effect a combination of PD-L1 targeted delivery of HANP/Avasimibe was tested with uPAR targeted delivery of SN38 (7-Ethyl-10-hydroxycamptothecin), which is an active metabolite of irinotecan that is commonly used for the treatment of colon cancer. […] The effect of ATFmmp14-HANP/SN38 alone or in combination with PD1Y-HANP/Avasimibe at 5 mg/kg of Avasimibe and PD1Y peptide dose/injection was examined in a dual mouse colon cancer and atherosclerosis model. […] Significant reductions of the volumes of atherosclerotic plaques in all treatment groups were detected."}, "[1]": {"test_system": "MC38 mouse colon cancer cells", "experiment": "Cell proliferation assay", "type": "cell-based", "conditions": "MC-38, read-out: IC50, inhibition of tumor cell proliferation", "from_the_text": "Hydrophobic 5β-cholanic acid was conjugated to HA (HACA) to promote self-assembly and assist in loading of hydrophobic drug molecule avasimibe (Ava). HANP/Ava is produced by self-assembling of HACA and avasimibe using a high-pressure homogenizer. Amount of encapsulated avasimibe could reach to 20% (w/w) in HANP/Ava. PD1Y-HANP/Ava was produced by conjugating chemically synthesized PD1Y peptides, mediated by cysteine of PD1Y and maleimide of a short-PEG (12×) linker (FIG. 1B). A ratio of PD1Y to HANP at 17:1 was used. If a high concentration of PD1Y peptides will be needed for improvement of immune checkpoint inhibition, the amount of PD1Y peptides could be further increased up to 200 peptides per HANP."}, "[2]": {"experiment": "Targeted delivery by NIR optical imaging and NIR fluorescence microscopy", "type": "in vivo, Apoe−/− mice", "conditions": "systemic (i.v.) delivery, 48 hrs", "description": "Apoe^−/− (Apo E gene knock-out) mouse is a commonly used mouse model for atherosclerosis. […] Apoe^−/− mice developed s.c. tumors within 2-3 weeks and extensive atherosclerosis were found in the aortas, especially in the aorta arching. Targeted delivery of PD1Y-HANPs into tumors and atherosclerotic plaques is mediated by targeting PD-L1 (PD1Y) and CD44 (HANP) expressed in both tissues. To determine efficiency of targeted delivery, NIR 830 dye labeled-PD1Y-HANPs were injected i.v. into Apoe^−/− mice bearing mouse colon tumors. […] Histological analysis of H&E stained tissue sections using NIR fluorescence microscopy (Keyence) confirmed HANP signals in the plaques. PD1Y-HANPs were found as clusters in the stromal and tumor areas, with a higher level in necrotic tumor regions.\n(§1) A uPAR targeted stroma-penetrating ligand (ATFmmp14) was developed containing the amino terminal fragment of uPA fused with the catalytic domain of MMP14. […] ATFmmp14 targets to tumor stromal fibroblasts and macrophages and MMP14 digests extracellular matrixes. […] Without PD1Y or ATFmmp14 conjugation, lower levels of HANP/Avasimibe were present in tumors and atherosclerotic plaques. Thus, uPAR targeted ATF or ATFmmp14 conjugated PD1Y-HANP/Avasimibe enhances delivery efficiency in both plaques and tumors in dual disease mouse model or PDX model."}, "[3]": {"experiment": "Intratumoral delivery in colon PDX tumors", "type": "in vivo", "conditions": "colon PDX tumors in NSG mice", "from_the_text": "as §1"}, "[4]": {"test_system": "s.c. mouse colon tumors (MC38)", "experiment": "Tumor growth in dual colon cancer and atherosclerosis mouse model", "type": "in vivo, Apoe−/− mice", "conditions": "dual disease model", "description": "Apoe^−/− mice on a high fat diet carrying s.c. mouse colon tumors (a dual disease model) received five i.v. treatments, once every three days, of 10 mg/kg of avasimibe or equivalent PD1Y-HANP/avasimibe, 10 mg/kg of PD1Y peptide equivalent of PD1Y-HANP or PD1Y. Residual tumors were surgically resected 6 days by surgery after the last therapy. Tumors were weighted.\nApoe−/−mice bearing s.c. MC38 tumors received i.v. treatments of 5 mg/kg of Avasimibe, 5 mg/kg of PD1Y peptide, or […] of SN38 equivalent dose of free drugs or nanoparticle drugs.\nMC38 tumor specific IgG antibodies were detected in the mouse serum following PD1Y-HANP/Avasimibe treatment. […]\nApoe^−/− (Apo E gene knock-out) mouse is a commonly used mouse model for atherosclerosis. […] Histological analysis of H&E stained tissue sections using NIR fluorescence microscopy (Keyence) confirmed HANP signals in the plaques. […]\nIn order to enhance the therapeutic effect a combination of PD-L1 targeted delivery of HANP/Avasimibe was tested with uPAR targeted delivery of SN38 (7-Ethyl-10-hydroxycamptothecin), which is an active metabolite of irinotecan that is commonly used for the treatment of colon cancer. […] Significant reductions of the volumes of atherosclerotic plaques in all treatment groups were detected."}},
  "data": [
    {"compound": "CCc1c2c(nc3ccc(O)cc13)-c1cc3c(c(=O)n1C2)COC(=O)[C@]3(O)CC", "note": "[SN38, 7-Ethyl-10-hydroxycamptothecin]", "values": [
      {"measurement": "volumes of atherosclerotic plaques", "setting": "atherosclerotic plaques", "value": "decreased"}
    ]},
    {"compound": "CC(C)c1cc(C(C)C)c(CC(=O)NS(=O)(=O)Oc2c(C(C)C)cccc2C(C)C)c(C(C)C)c1", "note": "[avasimibe]", "values": [
      {"measurement": "IC50", "setting": "[1]", "value": 28, "unit": "µM"},
      {"measurement": "volumes of atherosclerotic plaques", "setting": "atherosclerotic plaques", "value": "decreased"},
      {"measurement": "amount of the plaques (in words)", "setting": "atherosclerotic plaques; following treatments and by the end of the survival study", "value": "significantly decreased"}
    ]},
    {"compound": "ATFmmp14: amino terminal fragment of uPA fused with the catalytic domain of MMP14; uPAR targeted stroma-penetrating ligand", "values": [
      {"measurement": "delivery into tumors and atherosclerotic plaques", "setting": "[2]", "value": "high delivery efficiency"},
      {"measurement": "intratumoral delivery", "setting": "[3]", "value": "high level of intratumoral delivery"}
    ]},
    {"compound": "NWNRLSPSNQTEKQAAPHHHHCGAISLHPKAKIEE [Unconjugated PD1Y peptide]", "values": [
      {"measurement": "therapeutic efficacy", "setting": "[4]", "value": "did not show therapeutic efficacy"}
    ]}
  ]
}
